In patent publication US10035800B2 (AbbVie Inc., priority 2013, dated 2018):

Assays:
[1] = tested on: breast cancer cell line MX-1; assay: MX-1 cell line proliferation assay; format: cell-based; details: MX-1 cells, 3-day proliferation assay, Cell Titer Glo; read-out: Cellular proliferation: EC50
Procedure: MX-1 Cell Line Proliferation Assay
The impact of compounds of the Examples on cancer cell proliferation was determined using the breast cancer cell line MX-1 (ATCC) in a 3-day proliferation assay and the data are reported in Table 1. MX-1 cells were maintained in RPMI 1640 medium (Sigma) supplemented with 10% FBS at 37 C.° and an atmosphere of 5% CO2. For compound testing, MX-1 cells were plated in 96-well black bottom plates at a density of 5000 cells/well in 90 μL of culture media and incubated at 37° overnight to allow cell adhesion and spreading. Compound dilution series were prepared in DMSO via a 3-fold serial dilution from 3 mM to 0.1 μM. The DMSO dilution series were then diluted 1:100 in phosphate buffered saline, and 10 μL of the resulted solution were added to the appropriate wells of the MX-1 cell plate. The final compound concentrations in the wells were 3, 1, 0.3, 0.1, 0.03, 0.01, 0.003, 0.001, 0.0003, and 0.0001 μM or 1, 0.3, 0.1, 0.03, 0.01, 0.003, 0.001, 0.0003, 0.0001, and 0.00003 μM.
Luminescence readings from the Cell Titer Glo assay were normalized to the DMSO treated cells and analyzed using the GraphPad Prism software with sigmoidal curve fitting to obtain EC50s. The minimum significant ratio (MSR) was determined to evaluate assay reproducibility (Eastwood et al., (2006) J Biomol Screen, 11: 253-261). The overall MSR was determined to be 2.1 and a moving MSR (last six run MSR overtime) has been <2.

BRD4 (BDI_K57-E168) = biological target: T1, BRD4 (BDI_K57-E168) (Homo sapiens, UniProt O60885); assay: TR-FRET bromodomain binding assay, first bromodomain of BRD4; details: 100 nM probe
T1 construct: BD1: amino acids K57-E168; made in house
How it was run: (§1)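 Ki values derive from IC50s using probe Kd and concentration, with IC50s fitted to normalized TR-FRET ratios (Ex 340/Em 495, 520). Compounds competed against an Alexa647-labelled BET-inhibitor (100 nM BDI, 30 nM BDII) for 8 nM His-tagged bromodomain bound by Eu-anti-His antibody, 1 h, room temperature, pH 6.0.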

BRD4 (BDII_E352-M457) = biological target: T2, BRD4 (BDII_E352-M457) (Homo sapiens, UniProt O60885); assay: TR-FRET bromodomain binding assay, second bromodomain of BRD4; details: 30 nM probe
T2 construct: protocol; made in house
How it was run: as §1

[2] = TR-FRET assay protocol G (compound 0.92 μM-15 pM)
[3] = TR-FRET assay protocol E (compound 9.19 μM-150 pM)

Molecule | EC50 [1] | Ki (BRD4 (BDI_K57-E168); [2]) | Ki (BRD4 (BDII_E352-M457); [2]) | Ki (BRD4 (BDI_K57-E168); [3]) | Ki (BRD4 (BDII_E352-M457); [3])
COc1ccccc1OC(=O)N1Cc2c[nH]c3c(=O)n(C)cc(c23)-c2cc(CS(C)(=O)=O)ccc21 [Example 95, 2-methoxyphenyl 10-methyl-7-((methylsulfonyl)methyl)-11-oxo-10,11-dihydro-1H-1,4,10-triazadibenzo[cd,f]azulene-4(3H)-carboxylate] | 14.1 nM | 2.18 nM | 2.53 nM | – | –
Cc1cccc(C)c1NC(=O)N1Cc2c[nH]c3c(=O)n(C)cc(c23)-c2cc(CS(C)(=O)=O)ccc21 [Example 61, N-(2,6-dimethylphenyl)-10-methyl-7-((methylsulfonyl)methyl)-11-oxo-10,11-dihydro-1H-1,4,10-triazadibenzo[cd,f]azulene-4(3H)-carboxamide] | > 1000 nM | 21.1 nM | 3.74 nM | – | –
COc1cc(N2Cc3c[nH]c4c(=O)n(C)cc(c34)-c3cc(CS(C)(=O)=O)ccc32)cc(OC)c1OC [Example 211, 10-methyl-7-((methylsulfonyl)methyl)-4-(3,4,5-trimethoxyphenyl)-3,4-dihydro-1H-1,4,10-triazadibenzo[cd,f]azulen-11(10H)-one] | 118 nM | 5.67 nM | 7.47 nM | – | –
CCC1c2c[nH]c3c(=O)n(C)cc(c23)-c2cc(S(=O)(=O)CC)ccc2N1CC1CC1 (stereo not drawn) [Example 3, 4-(cyclopropylmethyl)-3-ethyl-7-(ethylsulfonyl)-10-methyl-3,4-dihydro-1H-1,4,10-triazadibenzo[cd,f]azulen-11(10H)-one] | 48.7 nM | – | – | 46 nM | 8.91 nM
4-(2,4-difluorophenyl)-10-methyl-7-((methylsulfonyl)methyl)-11-oxo-3,4,10,11-tetrahydro-1H-1,4,10-triazadibenzo[cd,f]azulene-3-carboxamide [Example 141] | 319 nM | 20.8 nM | 10.9 nM | – | –
Cc1ccccc1NC(=O)N1Cc2c[nH]c3c(=O)n(C)cc(c23)-c2cc(CS(C)(=O)=O)ccc21 [Example 52, 10-methyl-7-((methylsulfonyl)methyl)-11-oxo-N-(o-tolyl)-10,11-dihydro-1H-1,4,10-triazadibenzo[cd,f]azulene-4(3H)-carboxamide] | 247 nM | 17.4 nM | 4.99 nM | – | –
Cn1cc2c3c(c[nH]c3c1=O)C(CN1C(=O)c3ccccc3C1=O)N(c1ccc(F)cc1F)c1ccc(CS(C)(=O)=O)cc1-2 [Example 205, (R)-2-((4-(2,4-difluorophenyl)-10-methyl-7-((methylsulfonyl)methyl)-11-oxo-3,4,10,11-tetrahydro-1H-1,4,10-triazadibenzo[cd,f]azulen-3-yl)methyl)isoindoline-1,3-dione] | > 1000 nM | 200 nM | 29.1 nM | – | –
Cn1cc2c3c(c[nH]c3c1=O)C(CCCO)N(c1ccc(F)cc1F)c1ccc(CS(C)(=O)=O)cc1-2 (stereo not drawn) [Example 142, 4-(2,4-difluorophenyl)-3-(3-hydroxypropyl)-10-methyl-7-((methylsulfonyl)methyl)-3,4-dihydro-1H-1,4,10-triazadibenzo[cd,f]azulen-11(10H)-one] | 51.8 nM | 8.61 nM | 0.6 nM | – | –
Cn1cc2c3c(c[nH]c3c1=O)C(CCN1C(=O)c3ccccc3C1=O)N(c1ccc(F)cc1F)c1ccc(CS(C)(=O)=O)cc1-2 (racemic) [Example 227, 2-(2-(4-(2,4-difluorophenyl)-10-methyl-7-((methylsulfonyl)methyl)-11-oxo-3,4,10,11-tetrahydro-1H-1,4,10-triazadibenzo[cd,f]azulen-3-yl)ethyl)isoindoline-1,3-dione] | 134 nM | 7.94 nM | 1.18 nM | – | –
10-methyl-4-(pyridin-2-yl)-7-(pyrrolidin-1-ylsulfonyl)-3,4-dihydro-1H-1,4,5,10-tetraazadibenzo[cd,f]azulen-11(10H)-one [Example 266] | 42.7 nM | 17.8 nM | 8.15 nM | – | –
COC(=O)CCC1c2c[nH]c3c(=O)n(C)cc(c23)-c2cc(CS(C)(=O)=O)ccc2N1CC1CC1 (stereo not drawn) [Example 14, methyl 3-(4-(cyclopropylmethyl)-10-methyl-7-((methylsulfonyl)methyl)-11-oxo-3,4,10,11-tetrahydro-1H-1,4,10-triazadibenzo[cd,f]azulen-3-yl)propanoate] | 14.6 nM | – | – | 6.9 nM | 0.882 nM
Cn1cc(-c2[nH]c3c(=O)n(C)cc4c3c2CN(c2ccc(F)cc2F)c2ccc(S(C)(=O)=O)cc2-4)cn1 [Example 270, 4-(2,4-difluorophenyl)-10-methyl-2-(1-methyl-1H-pyrazol-4-yl)-7-(methylsulfonyl)-3,4-dihydro-1H-1,4,10-triazadibenzo[cd,f]azulen-11(10H)-one] | 80.7 nM | 11 nM | 3.35 nM | – | –
COC(=O)NC1CCC(N2Cc3c[nH]c4c(=O)n(C)cc(c34)-c3cc(CS(C)(=O)=O)ccc32)CC1 (stereo not drawn) [Example 226, methyl ((cis)-4-(10-methyl-7-((methylsulfonyl)methyl)-11-oxo-10,11-dihydro-1H-1,4,10-triazadibenzo[cd,f]azulen-4(3H)-yl)cyclohexyl)carbamate] | 7.82 nM | 3.84 nM | 1.86 nM | – | –
Cn1cc2c3c(c[nH]c3c1=O)CN(C(=O)Nc1c(F)cccc1F)c1ccc(CS(C)(=O)=O)cc1-2 [Example 70, N-(2,6-difluorophenyl)-10-methyl-7-((methylsulfonyl)methyl)-11-oxo-10,11-dihydro-1H-1,4,10-triazadibenzo[cd,f]azulene-4(3H)-carboxamide] | 131 nM | 7.41 nM | 1.88 nM | – | –
Cn1cc2c3c(c[nH]c3c1=O)CN(Cc1ccccn1)c1ccc(CS(C)(=O)=O)cc1-2 [Example 249, 10-methyl-7-((methylsulfonyl)methyl)-4-(pyridin-2-ylmethyl)-3,4-dihydro-1H-1,4,10-triazadibenzo[cd,f]azulen-11(10H)-one] | 17.7 nM | 6.1 nM | 19.1 nM | – | –
Cn1cc2c3c(c[nH]c3c1=O)C(CCCOc1ccccc1)N(c1ccc(F)cc1F)c1ccc(CS(C)(=O)=O)cc1-2 (single isomer, unassigned) [Example 144] | 318 nM | > 238 nM | 18.8 nM | – | –
CN(C)C(=O)c1cc(CS(C)(=O)=O)cc2c1N(c1ccc(F)cc1F)Cc1c[nH]c3c(=O)n(C)cc-2c13 [Example 242, 4-(2,4-difluorophenyl)-N,N,10-trimethyl-7-((methylsulfonyl)methyl)-11-oxo-3,4,10,11-tetrahydro-1H-1,4,10-triazadibenzo[cd,f]azulene-5-carboxamide] | > 1000 nM | 12.6 nM | 3.78 nM | – | –
CCNC(=O)N1Cc2c[nH]c3c(=O)n(C)cc(c23)-c2cc(CS(C)(=O)=O)ccc21 [Example 45, N-ethyl-10-methyl-7-((methylsulfonyl)methyl)-11-oxo-10,11-dihydro-1H-1,4,10-triazadibenzo[cd,f]azulene-4(3H)-carboxamide] | 141 nM | 3.92 nM | 3.75 nM | – | –
Cn1cc2c3c(c[nH]c3c1=O)C(CNC(=O)c1ccccc1)N(c1ccc(F)cc1F)c1ccc(CS(C)(=O)=O)cc1-2 (stereo not drawn) [Example 137, N-((4-(2,4-difluorophenyl)-10-methyl-7-((methylsulfonyl)methyl)-11-oxo-3,4,10,11-tetrahydro-1H-1,4,10-triazadibenzo[cd,f]azulen-3-yl)methyl)benzamide] | 240 nM | 51.7 nM | 3.87 nM | – | –
Cn1cc2c3c(c[nH]c3c1=O)CN(C(=O)Cc1ccccc1)c1ccc(CS(C)(=O)=O)cc1-2 [Example 108, 10-methyl-7-((methylsulfonyl)methyl)-4-(2-phenylacetyl)-3,4-dihydro-1H-1,4,10-triazadibenzo[cd,f]azulen-11(10H)-one] | 165 nM | 13.9 nM | 2.11 nM | – | –
CNC(=O)c1cc(CS(C)(=O)=O)cc2c1N(c1ccc(F)cc1F)Cc1c[nH]c3c(=O)n(C)cc-2c13 [Example 241, 4-(2,4-difluorophenyl)-N,10-dimethyl-7-((methylsulfonyl)methyl)-11-oxo-3,4,10,11-tetrahydro-1H-1,4,10-triazadibenzo[cd,f]azulene-5-carboxamide] | 51.5 nM | 3.07 nM | 1.76 nM | – | –
